From patent US20180325914A1, “INCREASING STORAGE OF VITAMIN A, VITAMIN D AND/OR LIPIDS” (Salk Institute for Biological Studies, priority 2014, published 2018)

Columns and labels:
[1] = tested on: pro-fibrotic gene expression (COL1A1) in LX-2 cells; experiment: qRT-PCR of pro-fibrotic gene expression in LX-2 cells; conditions: JQ1 500 nM, 16 hr vs DMSO
[2] = tested on: p53 2.1.1 cell line in FVB/n hosts; experiment: Orthotopic allograft of p53 2.1.1 pancreatic cancer cells; assay type: in vivo, mouse
Procedure: The p53 2.1.1 cell line, a luciferase-expressing cell line derived from autochthonous pancreatic cancer in pure FVB/n mice, was used for orthotopic transplantation into pancreata of immune-competent FVB/n hosts. Cells were resuspended in 50% DMEM+10% FBS, 50% Matrigel and 1,000 cells per mouse were injected into the body of the pancreas. One week after transplantation, transplanted mice were subject to bioluminescence imaging to measure luciferase activity and, thus, tumor burden. […] Mice were imaged again to measure bioluminescence signal (tumor burden) at experimental endpoint; pancreata were removed, weighed, and fixed or flash-frozen for further analysis.

primary murine HSCs [3] = experiment: Lipid droplet accumulation assay (BODIPY staining); assay type: cell-based, mouse; conditions: day 6, JQ1 500 nM
Procedure: Primary murine HSCs were seeded onto chamber slides (Nunc). […] Media was aspirated, cells were washed twice with PBS (Gibco) and fixed in 10% buffered formalin at room temperature for 15 minutes. Fixative was removed and cells were washed three times with PBS. […] Dye was removed and cells were washed three times with PBS, then mounted using Vectastain mounting medium (Vector Labs). Fluorescence was visualized through the GFP filter on a Leica DM5000B fluorescent microscope. Nuclear counterstaining was performed using DAPI (Vector).

primary HSCs [4] = experiment: Cell proliferation assay (BrdU), primary HSCs; assay type: cell-based, mouse; conditions: JQ1 500 nM
Text: BrdU-positive cells were counted under fluorescent microscope (Olympus, IX51).

C57BL/6J mice [5] = experiment: Serum alanine aminotransferase (ALT) assay in CCl4 model; assay type: in vivo, mouse; conditions: preventive CCl4 model; JQ1 50 mg/kg IP
Procedure: (§1) The animals were terminated 72 hours after the final CCl4 injection and whole livers were collected for histological, cytological, biochemical and molecular analyses.
The ALT activity in mice serum was measured using a kit from Thermo Scientific (TR71121).

primary HSCs [6] = experiment: Cell viability assay (CellTiter Glo), primary HSCs; assay type: cell-based, mouse; conditions: dose-dependent manner
Procedure: Primary HSCs or LX-2 cells were seeded onto 96-well tissue culture plates.

primary murine HSCs [7] = experiment: Immunocytochemistry (Acta2) of HSC activation into myofibroblasts; assay type: cell-based, mouse; conditions: day 6, JQ1 500 nM
Procedure: Primary murine HSCs were seeded onto chamber slides (Nunc). […] Media was aspirated, cells were washed twice with PBS (Gibco) and fixed in 10% buffered formalin at room temperature for 15 minutes. Fixative was removed and cells were washed three times with PBS. The slides were then blocked with 3% BSA and incubated with rabbit anti-ACTA2 antibody (at 1:100 dilution; Abcam) overnight at 4° C. After washing, the slides were incubated for 1 hour with Alexa Fluor546-labeled donkey anti-rabbit IgG antibody (at 1:200 dilution; Invitrogen). Finally, the slides were analyzed for fluorescence using an all-in-one type fluorescent microscope (BioZero BZ-9000; Keyence, Osaka, Japan). Nuclear counterstaining was performed using DAPI (Vector).

primary HSCs [8] = experiment: qRT-PCR gene expression in primary murine HSCs; assay type: cell-based, mouse; conditions: JQ1 500 nM, RT-qPCR
C57BL/6J mice [9] = experiment: CCl4 model of liver fibrosis, therapeutic study; assay type: in vivo, mouse; conditions: JQ1 50 mg/kg IP
Procedure: as §1
5 μm sections of formalin-fixed liver were stained following standard hematoxylin-eosin (H&E) and Sirius Red methods and reviewed by a pathologist who was blinded to the experimental conditions. Fibrosis was scored using the Ishak modified histological activity index (HAI) scoring system. Liver fibrosis was also quantified using Image J software on 10 non-contiguous Sirius Red stained sections. […] fibrosis was quantified using hydroxyproline assay. All images were obtained using a high-resolution Leica DFC420 digital camera mounted on an Olympus microscope equipped with ×4/0.13, ×10/0.30, ×20/0.50 and ×40/0.75 UplanFL N plan objective lenses and processed with the Leica Application Suite. Tissue hydroxyproline content was measured using a kit from Biovision (K555-100).
Liver samples were deparaffinized and rehydrated in PBS. Following antigen retrieval with the target retrieval solution (Dako, Glostrup, Denmark), endogenous peroxidase activity was blocked by incubation with 0.3% hydrogen peroxide. […]
Therefore, the ability of JQ1 to prevent progression of ongoing liver fibrosis was determined. […]

[10] = tested on: Pancreatic cancer cell lines (AsPc1, MIAPaCa2, PancT and P53 2.1.1); experiment: Viability of pancreatic cancer cell lines in astromal or stromal hydrogels (Cell TiterGlo); assay type: cell-based; conditions: 500 nM JQ1, 72 hours, astromal or stromal culture conditions
Text: Pancreatic cancer cell lines (AsPc1, MIAPaCa2, PancT and P53 2.1.1) were embedded in HyStem®-C hydrogels (ESI-BIO) at a concentration of 5×10^5 cells/ml. For astromal hydrogels, Glycosil® and Extralink™ components were resuspended in degassed H2O per manufacturer's procotol, and Glycosil®+degassed H2O+Extralink™ were combined in a 1:1:1 ratio. For the stromal hydrogels, Glycosil®, Gelin-S® (denatured collagens), and Extralink™ components were resuspended in degassed H2O per manufacturer's procotol, and Glycosil®+Gelin-S®+Extralink™ were combined in a 1:1:1 ratio. Pancreatic cancer cells were resuspended in the hydrogels and seeded into 96-well plates, 100 μl/well (5×10^4 cells/well). Triplicate wells were seeded for each condition to be tested. After hydrogel polymerization was evident (30-45 minutes), DMEM+10% FBS was added to astromal wells and conditioned media from cancer-associated PSCs was added to stromal wells. Conditioned media was prepared by growing primary cancer-associated PSCs (grown out of human pancreatic tumors) to confluency, changing to fresh DMEM+10% FBS, then collecting the media after 48 hours and passing through a 0.45 um filter to clear debris. […] Viability assays were performed after 72 hours using the Cell TiterGlo reagent (Promega) according to the manufacturer's instructions, but with a 45 minute incubation to ensure efficient lysis in 3D cultures.

[11] = 75 mg/kg JQ1 i.p. daily for 14 days
[12] = 75 mg/kg JQ1 i.p. daily for 14 days vs vehicle

`Cc1sc2c(c1C)C(c1ccc(Cl)cc1)=N[C@@H](CC(=O)OC(C)(C)C)c1nnc(C)n1-2` [JQ1, (S)-tert-butyl 2-(4-(4-chlorophenyl)-2,3,9-trimethyl-6H-thieno[3,2-f][1,2,4]triazolo[4,3-a][1,4]diazepin-6-yl)acetate] was tested, and the “repression of COL1A1” value [1] was 4.5 fold, the “BLI and pancreas weight” value [2, 11] was “significantly reduced” and the “number of phospho-H3+ tumor cells, and number of CD45 and DAPI containing cells” value [2, 11] was “significantly reduced”. The “decrease in cell proliferation (phospho-H3+)” value [2, 12] was “about 50%”, the “decrease in leukocyte recruitment (CD45)” value [2, 12] was “about 70%” and the “decrease in luciferase light units (tumor cell count, tumor burden)” value [2, 12] was “about 33%”. For the same compound, the “morphology, Acta2 distribution and lipid content of treated cells” value (primary murine HSCs [3]) was “closely resembled quiescent (day 1) cells”, the “BrdU incorporation into activated HSCs” value (primary HSCs [4]) was “significant decrease” and the “liver injury due to CCl4 assessed by serum ALT” value (C57BL/6J mice [5]) was “not significantly impacted”. The “anti-proliferative activity against activated HSCs” value (primary HSCs [6]) was “significant anti-proliferative activity”, the “HSCs transdifferentiation into myofibroblasts, phenotypically (morphology, Acta2 distribution)” value (primary murine HSCs [7]) was “dramatically arrested” and the “Ccnd2 and Myc expression” value (primary HSCs [8]) was “without perturbing”. For the same compound, the “induction of Pdgfrb and Ccnd1 during HSC activation” value (primary HSCs [8]) was “disrupted induction”, the “progression of liver fibrosis (histological scoring, Sirius red, hydroxyproline, marker gene expression)” value (C57BL/6J mice [9]; CCl4 three weeks, then CCl4/JQ1 co-treatment for three weeks) was “blocked the progression” and the “CCl4-induced HSC activation (quantitative Acta2 immunohistochemistry)” value (C57BL/6J mice [9]; chronic CCl4) was “dramatically reduced”. For the same compound, the “growth of pancreatic cancer cell lines in vitro” value [10] was “significantly reduced”.
